From patent publication US5854388A, “Angiotensin IV peptides and receptor” (Washington State University Research Foundation, priority 1994, dated 1998)

Experiment: Stability of angiotensin peptides in binding buffer (reverse phase HPLC)
Format: physicochemical
Conditions: 4 h at 37° C.
Description: Binding studies were carried out in a buffer (below) containing an extensive cocktail of inhibitors that was designed to minimize metabolism of both the receptor and the test ligand, i.e., the buffer contained 5 mM EDTA, 0.2% BSA, […] Bestatin, 50 μM Plummer's inhibitor, and 100 μM PMSF.

CC[C@H](C)[C@H](NC(=O)[C@H](Cc1ccc(O)cc1)NC(=O)[C@@H](N)C(C)C)C(=O)N[C@@H](Cc1cnc[nH]1)C(=O)N1CCC[C@H]1C(=O)N[C@@H](Cc1ccccc1)C(=O)O [AIV, Val1 Tyr2 Ile3 His4 Pro5 Phe6]
hydrolysis in binding buffer: less than 10%
